How the values were obtained:
KP1010 SHV-12 = assay: Aztreonam potentiation (MPC@4), strain KP1010 SHV-12; details: minimum BLI concentration inhibiting growth with aztreonam 4 μg/mL; tested up to 40 μg/mL
KP1004 KPC-2 [1] = assay: Aztreonam potentiation (MPC@4), strain KP1004 KPC-2; details: minimum BLI concentration inhibiting growth with aztreonam 4 μg/mL; tested up to 40 μg/mL
ECL1002 = assay: Aztreonam potentiation (MPC@4), strain ECL1002; details: minimum BLI concentration inhibiting growth with aztreonam 4 μg/mL; tested up to 40 μg/mL
KP1009 CTX-M-15 = assay: Aztreonam potentiation (MPC@4), strain KP1009 CTX-M-15; details: minimum BLI concentration inhibiting growth with aztreonam 4 μg/mL; tested up to 40 μg/mL
[2] = biological target: purified class A, C and D enzymes (β-lactamases) (Klebsiella pneumoniae, UniProt Q6XEC0); assay: biochemical; format: biochemical; details: purified OXA-48; nitrocefin (NCF) as reporter substrate
[3] = biological target: T1, purified class A, C and D enzymes (β-lactamases) (Pseudomonas aeruginosa, UniProt P24735); assay: biochemical; format: biochemical; details: purified Pa-AmpC; nitrocefin (NCF) as reporter substrate; read-out: Ki (Pa-AmpC, NCF)
T1 construct: rows headed: Ki (Pa-AmpC, NCF), uM; other: purified Pa-AmpC; nitrocefin (NCF) as reporter substrate

[4] = biological target: purified class A, C and D enzymes (β-lactamases) (Klebsiella pneumoniae, UniProt Q9F663); assay: biochemical; format: biochemical; details: purified KPC-2; nitrocefin (NCF) as reporter substrate
[5] = biological target: T2, purified class A, C and D enzymes (β-lactamases) (Acinetobacter baumannii, UniProt Q9L4P2); assay: biochemical; format: biochemical; details: purified OXA-23; nitrocefin (NCF) as reporter substrate
T2 construct: rows headed: Ki (OXA-23, NCF), uM; other: purified OXA-23; nitrocefin (NCF) as reporter substrate

[6] = biological target: purified class A, C and D enzymes (β-lactamases) (Escherichia coli, UniProt Q9L5C7); assay: biochemical; format: biochemical; details: purified CTX-M-14; nitrocefin (NCF) as reporter substrate
[7] = biological target: purified class A, C and D enzymes (β-lactamases) (Enterobacter cloacae, UniProt P05364); assay: biochemical; format: biochemical; details: purified P99; nitrocefin (NCF) as reporter substrate
EC1010 CMY-6 = assay: Aztreonam potentiation (MPC@4), strain EC1010 CMY-6; details: minimum BLI concentration inhibiting growth with aztreonam 4 μg/mL; tested up to 40 μg/mL
AB1054 OXA-23 = assay: Meropenem potentiation (MPC@8), strain AB1054 OXA-23; format: cell-based, Acinetobacter baumannii; details: minimum BLI concentration inhibiting growth with meropenem 8 μg/mL; tested up to 20 μg/mL
ec308 SHV-5 = assay: Aztreonam potentiation (MPC@4), strain ec308 SHV-5; details: minimum BLI concentration inhibiting growth with aztreonam 4 μg/mL; tested up to 40 μg/mL
KP1086 OXA-48 = assay: Biapenem potentiation (MPC@1), strain KP1086 OXA-48; format: cell-based; details: minimum BLI concentration inhibiting growth with biapenem 1 μg/mL; tested up to 40 μg/mL
Protocol: (§1) Biapenem was present in the test medium at 1 μg/mL. […] Table 3 summarizes the BLI potency of biapenem potentiation (MPC@1) for two strains overexpressing class A (KPC) and class D (OXA-48) carbapenemases. Biapenem MIC for each strain is also shown.

KP1004 KPC-2 [8] = assay: Biapenem potentiation (MPC@1), strain KP1004 KPC-2; format: cell-based; details: minimum BLI concentration inhibiting growth with biapenem 1 μg/mL; tested up to 40 μg/mL
Protocol: as §1

AB1053 OXA-72 = assay: Meropenem potentiation (MPC@8), strain AB1053 OXA-72; format: cell-based, Acinetobacter baumannii; details: minimum BLI concentration inhibiting growth with meropenem 8 μg/mL; tested up to 20 μg/mL
KP1005 CTX-M-14 = assay: Tigemonam potentiation (MPC@4), strain KP1005 CTX-M-14; details: minimum BLI concentration inhibiting growth with tigemonam 4 μg/mL; tested up to 40 μg/mL
ec302 TEM-10 = assay: Aztreonam potentiation (MPC@4), strain ec302 TEM-10; details: minimum BLI concentration inhibiting growth with aztreonam 4 μg/mL; tested up to 40 μg/mL

T2 sequence (Q9L4P2 whole entry): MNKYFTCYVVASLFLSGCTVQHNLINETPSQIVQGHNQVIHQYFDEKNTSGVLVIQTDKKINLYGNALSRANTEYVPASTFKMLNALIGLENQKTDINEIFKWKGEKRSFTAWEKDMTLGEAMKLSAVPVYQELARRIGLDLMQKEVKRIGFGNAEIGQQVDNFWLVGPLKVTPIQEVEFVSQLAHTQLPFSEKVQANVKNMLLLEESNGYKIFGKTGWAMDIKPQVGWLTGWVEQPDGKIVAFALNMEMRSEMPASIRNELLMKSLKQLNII
Sequence of purified class A, C and D enzymes (β-lactamases) (Escherichia coli, UniProt Q9L5C7) (Q9L5C7 entry or part of it): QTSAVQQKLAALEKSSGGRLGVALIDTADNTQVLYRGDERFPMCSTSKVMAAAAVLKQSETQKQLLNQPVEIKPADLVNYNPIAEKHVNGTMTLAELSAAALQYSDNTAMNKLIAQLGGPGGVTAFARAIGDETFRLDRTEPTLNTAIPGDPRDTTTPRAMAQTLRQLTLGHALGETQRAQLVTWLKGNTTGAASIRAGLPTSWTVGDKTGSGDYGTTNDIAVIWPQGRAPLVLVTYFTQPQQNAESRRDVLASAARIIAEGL
Sequence of purified class A, C and D enzymes (β-lactamases) (Enterobacter cloacae, UniProt P05364) (P05364 21-381): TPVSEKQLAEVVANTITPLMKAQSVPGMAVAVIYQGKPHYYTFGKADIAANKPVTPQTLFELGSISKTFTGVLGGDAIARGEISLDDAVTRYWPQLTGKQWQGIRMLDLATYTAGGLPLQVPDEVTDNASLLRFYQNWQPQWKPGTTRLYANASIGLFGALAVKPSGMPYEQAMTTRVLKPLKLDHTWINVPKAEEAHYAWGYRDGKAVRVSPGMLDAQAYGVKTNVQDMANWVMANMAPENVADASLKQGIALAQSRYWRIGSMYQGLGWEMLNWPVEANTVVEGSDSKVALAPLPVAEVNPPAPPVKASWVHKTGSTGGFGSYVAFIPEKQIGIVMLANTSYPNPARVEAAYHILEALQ
T1 sequence (P24735 whole entry): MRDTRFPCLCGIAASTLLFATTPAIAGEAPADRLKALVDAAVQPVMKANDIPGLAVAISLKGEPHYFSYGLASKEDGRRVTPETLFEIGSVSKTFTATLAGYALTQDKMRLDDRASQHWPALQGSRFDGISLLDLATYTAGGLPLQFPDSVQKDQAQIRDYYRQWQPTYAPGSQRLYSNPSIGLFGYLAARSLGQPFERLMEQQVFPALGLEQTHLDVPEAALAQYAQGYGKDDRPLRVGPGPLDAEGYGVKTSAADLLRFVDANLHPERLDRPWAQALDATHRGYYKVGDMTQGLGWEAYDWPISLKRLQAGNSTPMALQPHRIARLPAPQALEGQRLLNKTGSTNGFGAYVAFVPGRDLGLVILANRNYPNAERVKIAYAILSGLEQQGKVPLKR

Structure (SMILES) | AZT MPC4 SHV-12 KP1010 (KP1010 SHV-12) | AZT MPC4 KPC-2 KP1004 (KP1004 KPC-2 [1]) | AZT MPC4 ECL1002 (ECL1002) | AZT MPC4 CTX-M-15 KP1009 (KP1009 CTX-M-15) | Ki (OXA-48, NCF), uM [2] | Ki [3] | Ki (KPC-2, NCF), uM [4] | Ki [5] | Ki (CTX-M-14, NCF), uM [6] | Ki (P99, NCF), uM [7] | AZT MPC4 CMY-6 EC1010 (EC1010 CMY-6) | MPM MPC8 AB1054 OXA-23 (AB1054 OXA-23) | AZT MPC4 SHV-5 ec308 (ec308 SHV-5) | BPM MPC1 OXA-48 KP1086 (KP1086 OXA-48) | BPM MPC1 KP1004 KPC-2 (KP1004 KPC-2 [8]) | MPM MPC8 AB1053 OXA-72 (AB1053 OXA-72) | TIG MPC4 CTX-M-14 KP1005 (KP1005 CTX-M-14) | AZT MPC4 TEM-10 ec302 (ec302 TEM-10)
O=C(O)c1c(F)c(F)cc2c1OB(O)CC2 [Compound 35, 6,7-Difluoro-2-hydroxy-3,4-dihydro-1,2-benzoxaborinine-8-carboxylic acid] | X (X = MPC@4 ≤ 5 μg/mL) | X (X = MPC@4 ≤ 5 μg/mL) | X (X = MPC@4 ≤ 5 μg/mL) | X (X = MPC@4 ≤ 5 μg/mL) | X (X = Ki ≤ 0.1 μM) | < 100 nM | X (X = Ki ≤ 0.1 μM) | < 100 nM | X (X = Ki ≤ 0.1 μM) | X (X = Ki ≤ 0.1 μM) | X (X = MPC@4 ≤ 5 μg/mL) | X (X = MPC@1 ≤ 5 μg/mL) | X (X = MPC@4 ≤ 5 μg/mL) | X (X = MPC@1 ≤ 5 μg/mL) | X (X = MPC@1 ≤ 5 μg/mL) | X (X = MPC@1 ≤ 5 μg/mL) | Y (Y = 5 μg/mL < MPC@4 ≤ 20 μg/mL) | X (X = MPC@4 ≤ 5 μg/mL)
CS(=O)(=O)c1ccc2c(c1C(=O)O)OB(O)CC2 [Compound 39, 2-Hydroxy-7-methylsulfonyl-3,4-dihydro-1,2-benzoxaborinine-8-carboxylic acid] | X (X = MPC@4 ≤ 5 μg/mL) | X (X = MPC@4 ≤ 5 μg/mL) | X (X = MPC@4 ≤ 5 μg/mL) | X (X = MPC@4 ≤ 5 μg/mL) | X (X = Ki ≤ 0.1 μM) | < 100 nM | X (X = Ki ≤ 0.1 μM) | < 100 nM | X (X = Ki ≤ 0.1 μM) | X (X = Ki ≤ 0.1 μM) | X (X = MPC@4 ≤ 5 μg/mL) | X (X = MPC@1 ≤ 5 μg/mL) | X (X = MPC@4 ≤ 5 μg/mL) | X (X = MPC@1 ≤ 5 μg/mL) | X (X = MPC@1 ≤ 5 μg/mL) | X (X = MPC@1 ≤ 5 μg/mL) | Y (Y = 5 μg/mL < MPC@4 ≤ 20 μg/mL) | X (X = MPC@4 ≤ 5 μg/mL)

— US10618918B2, “Substituted boronic acids as antimicrobials” (priority 2015, dated 2020)
